The source of these data is patent publication US20100022531A1, “NOVEL COMPOUNDS AS P2X7 MODULATORS AND USES THEREOF” (RENOVIS, INC., priority 2005, published 2010).

Where two headings read alike, the source gives them in different places. Where only a bound is given, the exact number is not on record here.

For this experiment, the target named is T1, P2X7 receptor (Homo sapiens, UniProt Q99572).
T1 construct: host or cells: THP-1 cells differentiated with LPS and IFN-γ
T1 sequence (Q99572 1-595): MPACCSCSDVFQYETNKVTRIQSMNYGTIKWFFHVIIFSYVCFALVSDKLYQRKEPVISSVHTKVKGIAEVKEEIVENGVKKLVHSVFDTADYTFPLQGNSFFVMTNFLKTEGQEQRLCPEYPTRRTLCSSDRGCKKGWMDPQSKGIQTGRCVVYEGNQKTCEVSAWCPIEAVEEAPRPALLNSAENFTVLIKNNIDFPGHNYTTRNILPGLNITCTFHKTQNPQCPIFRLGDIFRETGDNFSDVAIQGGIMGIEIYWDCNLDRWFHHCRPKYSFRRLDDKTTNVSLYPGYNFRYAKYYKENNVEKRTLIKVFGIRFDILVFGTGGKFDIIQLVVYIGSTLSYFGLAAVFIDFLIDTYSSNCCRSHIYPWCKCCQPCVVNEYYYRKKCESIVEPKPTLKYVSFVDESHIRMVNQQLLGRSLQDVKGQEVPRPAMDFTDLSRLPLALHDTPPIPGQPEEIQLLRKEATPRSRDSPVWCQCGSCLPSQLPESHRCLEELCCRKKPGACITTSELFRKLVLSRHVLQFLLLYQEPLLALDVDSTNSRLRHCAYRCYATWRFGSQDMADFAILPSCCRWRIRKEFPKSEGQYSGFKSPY
Kind of experiment: Alternate method for IL-1β release assay (differentiated THP-1 cells, BzATP-stimulated, ELISA). The class given is cell-based. Particulars: for inhibition at 0.1 µM: 0.1 μM compound (plus symbols), read-out: IL-1β % inhib @ 0.1 μM. Here is the method:
Alternate Method for IL-1β Release Assay
THP-1 cells (ATCC Cat #285-IF-100) are plated in 96 well plates at a concentration of 200,000 cells per well and allowed to differentiate in RPMI-1640 media (ATCC Cat #30-2001) containing 10% FBS, 100 IU/mL penicillin, 100 ug/mL streptomycin, 100 ng/mL LPS and 100 ng/mL IFN-γ for 16 hours. Following differentiation, the cells are treated for an additional 2 hours in RPMI-1640 media containing 100 IU/mL penicillin, 100 ug/mL streptomycin and fresh LPS at 100 ng/mL. The cells are then pretreated for 30 minutes with the compound of interest at the appropriate concentration in RPMI media containing 100 IU/mL penicillin, 100 ug/mL streptomycin. Following the pretreatment 2′,3′-O-(4-benzoylbenzoyl)-adenosine 5′-triphosphate (Sigma Aldrich Cat# B6396) is added to a final concentration of 250 uM and the cells incubated for an additional 45 minutes. 30 uL of cell supernatant is then collected and IL-1β levels determined via ELISA (R&D systems Cat. # HSLB50) according to manufacturers recommendations using the Tecan Safire plate reader. Background adjusted IL-1β levels of drug treated and non-treated cells are used to calculate the percent inhibition.

Setting [1] is: P2X7, 0.3 μM compound (asterisk symbols), read-out: IL-1β % inhib @ 0.3 μM.

With `c1ccc(CN2CCc3c(ncnc3NCC34CC5CC(CC(C5)C3)C4)C2)cc1` [Compound 1, Adamantan-1-ylmethyl-(7-benzyl-5,6,7,8-tetrahydro-pyrido[3,4-d]pyrimidin-4-yl)-amine], the inhibition at 0.1 µM (P2X7) is above 75%.
On to `CC12CC3CC(C)(C1)CC(CNc1ncnc4c1CCN(Cc1ccccc1)C4)(C3)C2` [Compound 2], for which the inhibition at 0.3 µM under setting [1] lay within 0 to 25%.
With `CS(=O)(=O)N1CCc2c(ncnc2NCC23CC4CC(CC(C4)C2)C3)C1` [Compound 3], under setting [1], the inhibition at 0.3 µM lay in the range of 25 to 50%.
As for `O=S(=O)(c1ccccc1)N1CCc2c(ncnc2NCC23CC4CC(CC(C4)C2)C3)C1` [Compound 4, Adamantan-1-ylmethyl-(7-benzenesulfonyl-5,6,7,8-tetrahydro-pyrido[3,4-d]pyrimidin-4-yl)-amine], where the note is “P2X7, read-out: IL-1β % inhib @ 0.3 μM”, the inhibition at 0.3 µM was 50 to 75%.
Consider `Cc1ccc(S(=O)(=O)N2CCc3c(ncnc3NCC34CC5CC(CC(C5)C3)C4)C2)cc1` [Compound 5], for which the inhibition at 0.3 µM under setting [1] lay in the range of 50 to 75%.
For `O=S(=O)(c1ccc2ccccc2c1)N1CCc2c(ncnc2NCC23CC4CC(CC(C4)C2)C3)C1` [Compound 6], under setting [1], the inhibition at 0.3 µM was in the range of 0 to 25%.
As for `O=S(=O)(c1cccc2cccnc12)N1CCc2c(ncnc2NCC23CC4CC(CC(C4)C2)C3)C1` [Compound 7], under setting [1], the inhibition at 0.3 µM is above 75%.
The same measure, in the same setting: the figure for `CCCS(=O)(=O)N1CCc2c(ncnc2NCC23CC4CC(CC(C4)C2)C3)C1` [Compound 8] is 50 to 75%.
For `CCS(=O)(=O)N1CCc2c(ncnc2NCC23CC4CC(CC(C4)C2)C3)C1` [Compound 9], the inhibition at 0.1 µM (P2X7) was above 75%.
In the case of `COc1ccc(S(=O)(=O)N2CCc3c(ncnc3NCC34CC5CC(CC(C5)C3)C4)C2)cc1` [Compound 10], under setting [1], the inhibition at 0.3 µM fell in the range of 25 to 50%.
Same read-out and setting: the value for `O=S(=O)(c1ccc(Cl)cc1)N1CCc2c(ncnc2NCC23CC4CC(CC(C4)C2)C3)C1` [Compound 11] was 0 to 25%; that for `COc1ccc(S(=O)(=O)N2CCc3c(ncnc3NCC34CC5CC(CC(C5)C3)C4)C2)cc1OC` [Compound 12] was 25 to 50%.
Consider `O=S(=O)(c1ccc(F)cc1)N1CCc2c(ncnc2NCC23CC4CC(CC(C4)C2)C3)C1` [Compound 13], for which the inhibition at 0.3 µM under setting [1] is 25 to 50%.
The same measure, in the same setting: the value for `O=S(=O)(Cc1ccccc1)N1CCc2c(ncnc2NCC23CC4CC(CC(C4)C2)C3)C1` [Compound 14] was above 75%; that for `O=S(=O)(c1cccc(C(F)(F)F)c1)N1CCc2c(ncnc2NCC23CC4CC(CC(C4)C2)C3)C1` [Compound 15] was 0 to 25%.
Same read-out and setting: the figure for `O=S(=O)(c1ccc(OC(F)(F)F)cc1)N1CCc2c(ncnc2NCC23CC4CC(CC(C4)C2)C3)C1` [Compound 16] is 0 to 25%; for `CN1CCOc2cc(S(=O)(=O)N3CCc4c(ncnc4NCC45CC6CC(CC(C6)C4)C5)C3)ccc21` [Compound 17] it is 0 to 25%.
The same measure, in the same setting: the figure for `Cc1nn(C)c(Cl)c1S(=O)(=O)N1CCc2c(ncnc2NCC23CC4CC(CC(C4)C2)C3)C1` [Compound 18] is 0 to 25%; for `Cc1c(S(=O)(=O)N2CCc3c(ncnc3NCC34CC5CC(CC(C5)C3)C4)C2)cnn1-c1ccccc1` [Compound 19] it is 50 to 75%.
On to `O=S(=O)(c1cccc(OC(F)(F)F)c1)N1CCc2c(ncnc2NCC23CC4CC(CC(C4)C2)C3)C1` [Compound 20], for which, under setting [1], the inhibition at 0.3 µM lay in the range of 25 to 50%.
On to `COc1cccc(S(=O)(=O)N2CCc3c(ncnc3NCC34CC5CC(CC(C5)C3)C4)C2)c1` [Compound 21], for which the inhibition at 0.3 µM under setting [1] lay within 50 to 75%.
As to `Cc1nc(S(=O)(=O)N2CCc3c(ncnc3NCC34CC5CC(CC(C5)C3)C4)C2)cn1C` [Compound 22], under setting [1], the inhibition at 0.3 µM lay in the range of 0 to 25%.
Same read-out and setting: the figure for `N#Cc1ccc(S(=O)(=O)N2CCc3c(ncnc3NCC34CC5CC(CC(C5)C3)C4)C2)c(Cl)c1` [Compound 23] is 0 to 25%.
As to `O=S(=O)(c1ccccc1F)N1CCc2c(ncnc2NCC23CC4CC(CC(C4)C2)C3)C1` [Compound 24], the inhibition at 0.1 µM (P2X7) was above 75%.
Consider `N#Cc1ccc(S(=O)(=O)N2CCc3c(ncnc3NCC34CC5CC(CC(C5)C3)C4)C2)cc1` [Compound 25], for which the inhibition at 0.3 µM under setting [1] was 25 to 50%.
Still for that read-out and setting: the value for `Cc1noc(C)c1S(=O)(=O)N1CCc2c(ncnc2NCC23CC4CC(CC(C4)C2)C3)C1` [Compound 26] was 50 to 75%; that for `O=c1ccc2cc(S(=O)(=O)N3CCc4c(ncnc4NCC45CC6CC(CC(C6)C4)C5)C3)ccc2o1` [Compound 28] was 25 to 50%.
For `O=S(=O)(c1ccc(Oc2ccccn2)cc1)N1CCc2c(ncnc2NCC23CC4CC(CC(C4)C2)C3)C1` [Compound 29], under setting [1], the inhibition at 0.3 µM was above 75%.
On to `O=S(=O)(c1ccc(Oc2ccncc2)cc1)N1CCc2c(ncnc2NCC23CC4CC(CC(C4)C2)C3)C1` [Compound 31], for which the inhibition at 0.3 µM under setting [1] lay in the range of 25 to 50%.
On to `COc1ccc(Oc2ccc(S(=O)(=O)N3CCc4c(ncnc4NCC45CC6CC(CC(C6)C4)C5)C3)cc2)cc1` [Compound 32], for which the inhibition at 0.3 µM under setting [1] is 0 to 25%.
The same measure, in the same setting: the figure for `O=S(=O)(c1ccc(Oc2ccc(C(F)(F)F)cc2)cc1)N1CCc2c(ncnc2NCC23CC4CC(CC(C4)C2)C3)C1` [Compound 33] is 0 to 25%.
Still for that read-out and setting: the figure for `O=S(=O)(c1cccc(Oc2ccc(Cl)c(Cl)c2)c1)N1CCc2c(ncnc2NCC23CC4CC(CC(C4)C2)C3)C1` [Compound 34] is 0 to 25%; for `COc1ccc(-c2ccc(S(=O)(=O)N3CCc4c(ncnc4NCC45CC6CC(CC(C6)C4)C5)C3)cc2)cc1` [Compound 35] it is 0 to 25%; for `O=S(=O)(c1cc(C(F)(F)F)ccc1Cl)N1CCc2c(ncnc2NCC23CC4CC(CC(C4)C2)C3)C1` [Compound 37] it is 25 to 50%.
Turning to `O=S(=O)(Cc1cc(C(F)(F)F)cc(C(F)(F)F)c1)N1CCc2c(ncnc2NCC23CC4CC(CC(C4)C2)C3)C1` [Compound 38], the inhibition at 0.3 µM under setting [1] lay within 0 to 25%.
Consider `O=S(=O)(Cc1ccc(C(F)(F)F)cc1)N1CCc2c(ncnc2NCC23CC4CC(CC(C4)C2)C3)C1` [Compound 39], for which the inhibition at 0.3 µM under setting [1] fell in the range of 0 to 25%.
On the same count and under the same terms, the figure for `O=S(=O)(Cc1ccc(F)cc1)N1CCc2c(ncnc2NCC23CC4CC(CC(C4)C2)C3)C1` [Compound 40] is 0 to 25%; for `O=S(=O)(Cc1ccc(Cl)c(Cl)c1)N1CCc2c(ncnc2NCC23CC4CC(CC(C4)C2)C3)C1` [Compound 41] it is 0 to 25%.
On the same count and under the same terms, the value for `O=S(=O)(Cc1cc(Cl)cc(Cl)c1)N1CCc2c(ncnc2NCC23CC4CC(CC(C4)C2)C3)C1` [Compound 42] was 25 to 50%; that for `O=S(=O)(Cc1cccc(C(F)(F)F)c1)N1CCc2c(ncnc2NCC23CC4CC(CC(C4)C2)C3)C1` [Compound 43] was 25 to 50%.
Regarding `O=S(=O)(Cc1ccc(Cl)cc1)N1CCc2c(ncnc2NCC23CC4CC(CC(C4)C2)C3)C1` [Compound 45], under setting [1], the inhibition at 0.3 µM lay in the range of 25 to 50%.
On the same count and under the same terms, the value for `O=S(=O)(c1ccc(OC(F)F)cc1)N1CCc2c(ncnc2NCC23CC4CC(CC(C4)C2)C3)C1` [Compound 46] was 25 to 50%.
Take `O=S(=O)(c1ccc(Oc2ccccc2)cc1)N1CCc2c(ncnc2NCC23CC4CC(CC(C4)C2)C3)C1` [Compound 47]: where the note is “P2X7”, the inhibition at 0.1 µM is 50 to 75%.
On to `O=S(=O)(c1ccccc1Cl)N1CCc2c(ncnc2NCC23CC4CC(CC(C4)C2)C3)C1` [Compound 48], for which the inhibition at 0.3 µM under setting [1] is above 75%.
As to `O=S(=O)(c1ccc(F)c(Cl)c1)N1CCc2c(ncnc2NCC23CC4CC(CC(C4)C2)C3)C1` [Compound 49], the inhibition at 0.3 µM under setting [1] lay in the range of 50 to 75%.
Consider `O=S(=O)(c1ccccc1-c1ccccc1)N1CCc2c(ncnc2NCC23CC4CC(CC(C4)C2)C3)C1` [Compound 50], for which, for the setting “P2X7”, the inhibition at 0.1 µM was 25 to 50%.
For `O=S(=O)(c1ccccc1C(F)(F)F)N1CCc2c(ncnc2NCC23CC4CC(CC(C4)C2)C3)C1` [Compound 51], the inhibition at 0.3 µM under setting [1] is 0 to 25%.
Still for that read-out and setting: the figure for `O=S(=O)(c1ccc(-n2cccn2)cc1)N1CCc2c(ncnc2NCC23CC4CC(CC(C4)C2)C3)C1` [Compound 52] is 0 to 25%; for `COc1ccc(S(=O)(=O)N2CCc3c(ncnc3NCC34CC5CC(CC(C5)C3)C4)C2)c(OC)c1` [Compound 53] it is 50 to 75%.
Regarding `Cc1nn(C)c(C)c1S(=O)(=O)N1CCc2c(ncnc2NCC23CC4CC(CC(C4)C2)C3)C1` [Compound 54], the inhibition at 0.3 µM under setting [1] was in the range of 0 to 25%.
